Numbered stars: 1 amine (or outer) side, 2 acyl side, 3 side chain; on linkers, the order of the positions; unused ones are H or OH. Side chains are listed from the residue outwards. Peptide text beside a SMILES is read from it. * marks the point of attachment. C18 diacid = O=C(O)CCCCCCCCCCCCCCCCC(=O)*; C16 diacid = O=C(O)CCCCCCCCCCCCCCC(=O)*; γGlu = O=C(O)[C@H](CCC(=O)[*:2])N[*:1]; AEEA = NCCOCCOCC(=O)O
How the values were obtained:
[1] = Assay (X) Chemical stability assessment by RP-UPLC; assay type: physicochemical; conditions: pH 8.15, 14 days at 37° C. vs 5° C., 333 μM
Procedure: Chemical Stability Assessment
Lyophilized samples were dissolved in buffer (see below for detailed compositions) to a final concentration of 333 μM and a pH of 8.15, and were incubated for 14 days at 5° C. and 37° C. followed by RP-UPLC analysis. Purity was defined as the area percentage of the main peak in relation to the total area of all integrated peaks in each chromatogram. Purity loss after 14 days at 37° C. was determined as the difference in purity between the samples incubated at 5° C. and 37° C., divided by the purity of the sample after incubation for 14 days at 5° C.
RP-UPLC analysis was performed using a Waters BEH130 2.1 mm×150 mm, 1.7 μm column operated at 50° C. and a flow rate of 0.4 mL/min using a mobile phase system consisting of typically A: 50 mM Phosphate, 10 w/w % Acetonitrile pH 3 and B: 80 v/v Acetonitrile. UV-detection was performed at 215 nm. The typical gradient profile used for most of the samples is shown below.
For some individual analogues eluting at substantially different retention times compared with the majority of analogues, some adjustments to the gradient profile were made to better enable purity assessment comparison across samples. Also the composition of the channel B mobile phase component was in some of the analyses exchanged for a 90 v/v % Acetonitrile solvent solution in an attempt to better handle carry-over of material from one injection to the next in the sequence. This was however compensated for by recalculating the gradient profile appropriately.
Buffer: • 50 mM Dinatriumphosphatdihydrat • 184 mM Propylenglycol • 58 mM Phenol • pH adjusted to 8.15 with H3PO4. In cases where pH was adjusted to 8.15 after re-suspension of analogues, 0.2 M NaOH was used. Assay (XI) Pharmacokinetic Study in Minipigs

glucagon receptor = target: T1, glucagon receptor (Homo sapiens, UniProt P47871); test: Assay (I) Glucagon activity (cAMP biosensor, FLIPR); assay type: cell-based
T1 construct: expressed in transfected cells
T1 sequence (P47871 26-477): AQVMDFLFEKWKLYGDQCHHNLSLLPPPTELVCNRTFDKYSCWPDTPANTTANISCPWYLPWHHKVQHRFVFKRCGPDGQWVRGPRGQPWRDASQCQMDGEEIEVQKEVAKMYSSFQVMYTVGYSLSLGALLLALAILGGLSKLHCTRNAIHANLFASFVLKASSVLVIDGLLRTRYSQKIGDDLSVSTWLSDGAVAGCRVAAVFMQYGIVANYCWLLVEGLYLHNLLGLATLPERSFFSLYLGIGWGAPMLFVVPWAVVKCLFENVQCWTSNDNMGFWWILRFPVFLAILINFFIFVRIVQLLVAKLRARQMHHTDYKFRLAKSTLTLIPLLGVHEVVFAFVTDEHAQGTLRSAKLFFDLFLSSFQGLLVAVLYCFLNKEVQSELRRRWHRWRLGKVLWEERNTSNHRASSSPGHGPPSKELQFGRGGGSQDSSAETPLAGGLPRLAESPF

Structure (SMILES) | Chemical stability [Purity loss/14 days 37 C.] [1] [%] | EC50 (glucagon receptor) [nM]
CC(C)C[C@H](NC(=O)[C@H](Cc1ccc(O)cc1)NC(=O)[C@H](CCCCN)NC(=O)[C@H](CO)NC(=O)[C@H](Cc1ccc(O)cc1)NC(=O)[C@H](CC(=O)O)NC(=O)[C@H](CO)NC(=O)[C@@H](NC(=O)[C@H](Cc1ccccc1)NC(=O)[C@@H](NC(=O)CNC(=O)[C@H](CCC(N)=O)NC(=O)[C@H](CO)NC(=O)[C@@H](N)Cc1c[nH]cn1)[C@@H](C)O)[C@@H](C)O)C(=O)N[C@@H](CCC(=O)O)C(=O)N[C@@H](CO)C(=O)N[C@@H](CCCNC(=N)N)C(=O)N[C@@H](CCCNC(=N)N)C(=O)N[C@@H](C)C(=O)N[C@@H](CCC(N)=O)C(=O)N[C@@H](CC(=O)O)C(=O)N[C@@H](Cc1ccccc1)C(=O)N[C@H](C(=O)N[C@@H](CCCCNC(=O)CC[C@H](NC(=O)CC[C@H](NC(=O)COCCOCCNC(=O)CC[C@H](NC(=O)CCCCCCCCCCCCCCCCC(=O)O)C(=O)O)C(=O)O)C(=O)O)C(=O)N[C@@H](Cc1c[nH]c2ccccc12)C(=O)N[C@@H](CC(C)C)C(=O)N[C@@H](CC(C)C)C(=O)N[C@@H](CO)C(=O)N[C@H](C(=O)O)[C@@H](C)O)C(C)C [Example 1, N^ε24-[(4S)-4-carboxy-4-[[(4S)-4-carboxy-4-[[2-[2-[2-[[(4S)-4-carboxy-4-(17-carboxyheptadecanoylamino)butanoyl]amino]ethoxy]ethoxy]acetyl]amino]butanoyl]amino]butanoyl]-[Glu^15,Lys^24,Leu^27,Ser^28]-Glucagon] | 7.6 | 0.28
CC(C)C[C@H](NC(=O)[C@H](Cc1ccc(O)cc1)NC(=O)[C@H](CCCCN)NC(=O)[C@H](CO)NC(=O)[C@H](Cc1ccc(O)cc1)NC(=O)[C@H](CC(=O)O)NC(=O)[C@H](CO)NC(=O)[C@@H](NC(=O)[C@H](Cc1ccccc1)NC(=O)[C@@H](NC(=O)CNC(=O)[C@H](Cc1c[nH]cn1)NC(=O)[C@H](CO)NC(=O)[C@@H](N)Cc1c[nH]cn1)[C@@H](C)O)[C@@H](C)O)C(=O)N[C@@H](CC(=O)O)C(=O)N[C@@H](CCC(=O)O)C(=O)N[C@@H](CCCNC(=N)N)C(=O)N[C@@H](CCCNC(=N)N)C(=O)N[C@@H](C)C(=O)N[C@@H](CCCCN)C(=O)N[C@@H](CC(=O)O)C(=O)N[C@@H](Cc1ccccc1)C(=O)N[C@H](C(=O)N[C@@H](CCCCNC(=O)CC[C@H](NC(=O)CC[C@H](NC(=O)COCCOCCNC(=O)COCCOCCNC(=O)CC[C@H](NC(=O)CCCCCCCCCCCCCCCCC(=O)O)C(=O)O)C(=O)O)C(=O)O)C(=O)N[C@@H](Cc1c[nH]c2ccccc12)C(=O)N[C@@H](CC(C)C)C(=O)N[C@@H](CC(C)C)C(=O)N[C@@H](CO)C(=O)N[C@H](C(=O)O)[C@@H](C)O)C(C)C [Example 4, N^ε24-[(4S)-4-carboxy-4-[[(4S)-4-carboxy-4-[[2-[2-[2-[[2-[2-[2-[[(4S)-4-carboxy-4-(17-carboxyheptadecanoylamino)butanoyl]amino]ethoxy]ethoxy]acetyl]amino]ethoxy]ethoxy]acetyl]amino]butanoyl]amino]butanoyl]-[His^3,Glu^16,Lys^20,Lys^24,Leu^27,Ser^28]-Glucagon] (H-HSHGTFTSDYSKYLDERRAKDFVK([γGlu-γGlu-AEEA-AEEA-γGlu-C18 diacid])WLLST-OH) | 7.5 | 0.237
CC(C)C[C@H](NC(=O)[C@H](Cc1ccc(O)cc1)NC(=O)[C@H](CCCNC(=N)N)NC(=O)[C@H](CO)NC(=O)[C@H](Cc1ccc(O)cc1)NC(=O)[C@H](CC(=O)O)NC(=O)[C@H](CO)NC(=O)[C@@H](NC(=O)[C@H](Cc1ccccc1)NC(=O)[C@@H](NC(=O)CNC(=O)[C@H](CCC(N)=O)NC(=O)[C@H](CO)NC(=O)[C@@H](N)Cc1c[nH]cn1)[C@@H](C)O)[C@@H](C)O)C(=O)N[C@@H](CCC(=O)O)C(=O)N[C@@H](CO)C(=O)N[C@@H](CCCNC(=N)N)C(=O)N[C@@H](CCCNC(=N)N)C(=O)N[C@@H](C)C(=O)N[C@@H](CCC(N)=O)C(=O)N[C@@H](CC(=O)O)C(=O)N[C@@H](Cc1ccccc1)C(=O)N[C@H](C(=O)N[C@@H](CCCCNC(=O)CC[C@H](NC(=O)CC[C@H](NC(=O)COCCOCCNC(=O)COCCOCCNC(=O)CC[C@H](NC(=O)CCCCCCCCCCCCCCCCC(=O)O)C(=O)O)C(=O)O)C(=O)O)C(=O)N[C@@H](Cc1c[nH]c2ccccc12)C(=O)N[C@@H](CC(C)C)C(=O)N[C@@H](CC(C)C)C(=O)N[C@@H](CO)C(=O)N[C@H](C(=O)O)[C@@H](C)O)C(C)C [Example 14, N^ε24-[(4S)-4-carboxy-4-[[(4S)-4-carboxy-4-[[2-[2-[2-[[2-[2-[2-[[(4S)-4-carboxy-4-(17-carboxyheptadecanoylamino)butanoyl]amino]ethoxy]ethoxy]acetyl]amino]ethoxy]ethoxy]acetyl]amino]butanoyl]amino]butanoyl]-[Arg^12,Glu^15,Lys^24,Leu^27,Ser^25]-Glucagon] (H-HSQGTFTSDYSRYLESRRAQDFVK([γGlu-γGlu-AEEA-AEEA-γGlu-C18 diacid])WLLST-OH; N-terminus and C-terminus assumed) | 8.6 | –
CC(C)C[C@H](NC(=O)[C@H](Cc1c[nH]c2ccccc12)NC(=O)[C@H](CCCCNC(=O)CC[C@H](NC(=O)CC[C@H](NC(=O)COCCOCCNC(=O)COCCOCCNC(=O)CC[C@H](NC(=O)CCCCCCCCCCCCCCC(=O)O)C(=O)O)C(=O)O)C(=O)O)NC(=O)[C@@H](NC(=O)[C@H](Cc1ccccc1)NC(=O)[C@H](CC(=O)O)NC(=O)[C@H](CCC(N)=O)NC(=O)[C@H](C)NC(=O)[C@H](CCCNC(=N)N)NC(=O)[C@H](CCCNC(=N)N)NC(=O)[C@@H](NC(=O)[C@H](CC(=O)O)NC(=O)[C@H](CC(C)C)NC(=O)[C@H](Cc1ccc(O)cc1)NC(=O)[C@H](CCCNC(=N)N)NC(=O)[C@H](CO)NC(=O)[C@H](Cc1ccc(O)cc1)NC(=O)[C@H](CC(=O)O)NC(=O)[C@H](CO)NC(=O)[C@@H](NC(=O)[C@H](Cc1ccccc1)NC(=O)[C@@H](NC(=O)CNC(=O)[C@H](CCC(N)=O)NC(=O)[C@H](CO)NC(=O)[C@@H](N)Cc1c[nH]cn1)[C@@H](C)O)[C@@H](C)O)C(C)C)C(C)C)C(=O)N[C@@H](CC(C)C)C(=O)N[C@@H](CO)C(=O)N[C@H](C(=O)O)[C@@H](C)O [Example 97, N^ε24-[(4S)-4-carboxy-4-[[(4S)-4-carboxy-4-[[2-[2-[2-[[2-[2-[2-[[(4S)-4-carboxy-4-(15-carboxypentadecanoylamino)butanoyl]amino]ethoxy]ethoxy]acetyl]amino]ethoxy]ethoxy]acetyl]amino]butanoyl]amino]butanoyl]-[Arg12,Val16,Lys24,Leu27,Ser28]-Glucagon] (H-HSQGTFTSDYSRYLDVRRAQDFVK([γGlu-γGlu-AEEA-AEEA-γGlu-C16 diacid])WLLST-OH; N-terminus and C-terminus assumed) | – | 0.026

Reference: patent publication US9486506B2 (Novo Nordisk A/S, priority 2011, dated 2016)
